From US20030224021A1, “Methods of using epitope peptides of human pathogens” (Regents of the University of Minnesota, priority 1998, published 2003)
Where no end group is shown, it is not given here.

Columns and labels:
anti-DTD CD4+ cell lines = assay: Proliferation assay (3H-thymidine) with anti-DTD CD4+ cell lines challenged with individual synthetic DTX peptides; type: cell-based, human; conditions: seven subjects of different HLA class II haplotype; peptide 10 μg/ml
Protocol: Propagation of CD4+ cell lines specific for DTD and proliferation assay. PBMC were suspended (1-2×10^6 cell/ml) in TCM containing 10 μg/ml DTD, and cultivated in T25 flasks (Costar, Cambridge, Mass.) for 1 week. The reactive lymphoblasts were isolated on Percoll gradients, expanded in TCM containing T-cell growth factor (TCGF, Lymphocult, Biotest Diagnostic, Dreieich, Germany, at a final concentration of IL-2 of 10 units/ml), and enriched in DTD-specific cells by weekly stimulations with the same amount of DTD plus irradiated (4,000 rads: 1 rad=0.01 Gy) autologous PBMC as APC. The response to DTD and PHA of the T cell lines obtained was tested weekly.
Proliferation assays with CD4+ cell lines for DTD. Proliferation assays were carried out with CD4+ lines, using 2×10^4 cells/well, irradiated autologous PBMC (2×10^5 cells/well) as APC, and the Ags described above for CD4+ enriched PBMC. Basal growth rate (Blank) was determined from triplicate wells containing CD4+ cell lines cultivated without any stimulus. After one day, the cultured cells were pulsed for 16 hours with ^3H-thymidine, collected, and the ^3H-thymidine incorporation measured as described above for CD4+ enriched PBMC.
Sequence segments of DTX recognized by anti-DTD T cell lines. The DTX epitopes recognized by the CD4+ cell lines were identified in proliferation assays using individual synthetic DTX-specific peptides. […] The consistency of the recognition was verified by repeating the test 1-2 weeks later.

PBMC = PBMC of 49 HLA heterogenous subjects challenged with DTX and TTX universal epitope peptides; type: cell-based, human; conditions: share of the 49 subjects whose PBMC responded
Source text: PBMC of 49 randomly selected, HLA heterogenous human subjects were challenged with each of the identified DTX and TTX universal epitope peptides. Generally, the PBMCs of each subject recognized several universal epitopes and all but one recognized at least one of the peptides.

| Substance | recognition by anti-DTD CD4+ cell lines (anti-DTD CD4+ cell lines) | positive response (1%) (PBMC) |
| --- | --- | --- |
| GVLLPTIPGKLDVNKSKTHI [431-450] | recognized by all seven individuals | 70% |
| Gln-Ser-Ile-Ala-Leu-Ser-Ser-Leu-Met-Val-Ala-Gln-Ala-Ile-Pro-leu-Val-Gly-Glu-Leu [331-350] | recognized by all seven individuals | 80% |
| PVFAGANYAAWAVNVAQVI [271-290] | recognized by all seven individuals | 84% |
| QGESGHDIKITAENTPLPIA [411-430] | recognized by all seven individuals | 70% |
| TDD: column head of Table 4 beside the TTD sequence segments; presumably tetanus toxoid | – | 96% |
| VDIGFAAYNFVESIINLFQVV [351-370] | recognized by all seven individuals | 71% |
| VHHNTEEIVAQSIALSSLMV [321-340] | recognized by all seven individuals | 76% |
